This note sets out measurements from patent US8436030B2, “Polymorphic forms of deferasirox (ICL670A)” (Navartis AG, priority 2006, dated 2013).

The nature of this series: Solubility of solid forms (comparative statement). The settings on record: as compared to the crystalline form A or B. In kind it is physicochemical.

Molecules are shown by their SMILES.

For `O=C(O)c1ccc(-n2nc(-c3ccccc3O)nc2-c2ccccc2O)cc1` [amorphous form, 4-[3,5-bis(2-hydroxyphenyl)-[1,2,4]triazol-1-yl]benzoic acid], the solubility result is given as “highest solubility”.
